Laboratory results taken from patent US20250340537A1, “PHARMACEUTICALLY ACTIVE COMPOUNDS, COMPOSITIONS, AND METHODS FOR MODULATING PENDRIN” (ARBORMED Co., Ltd., priority 2022, published 2025).

Legend:
Format in all cases: cell-based
[1] = molecular target: T1, H723R-pendrin (Homo sapiens, UniProt O43511, H723R); assay: YFP fluorescence quenching assay (Cl−/I− exchange activity of pendrin); conditions: PANC-1 cells stably expressing human H723R-pendrin and YFP-F46L/H148Q/I152L; compound incubation 20-24 hours; iodide influx
T1 construct: expressed in transfected cells; host or cells: PANC-1
T1 sequence (O43511 1-780 H723R): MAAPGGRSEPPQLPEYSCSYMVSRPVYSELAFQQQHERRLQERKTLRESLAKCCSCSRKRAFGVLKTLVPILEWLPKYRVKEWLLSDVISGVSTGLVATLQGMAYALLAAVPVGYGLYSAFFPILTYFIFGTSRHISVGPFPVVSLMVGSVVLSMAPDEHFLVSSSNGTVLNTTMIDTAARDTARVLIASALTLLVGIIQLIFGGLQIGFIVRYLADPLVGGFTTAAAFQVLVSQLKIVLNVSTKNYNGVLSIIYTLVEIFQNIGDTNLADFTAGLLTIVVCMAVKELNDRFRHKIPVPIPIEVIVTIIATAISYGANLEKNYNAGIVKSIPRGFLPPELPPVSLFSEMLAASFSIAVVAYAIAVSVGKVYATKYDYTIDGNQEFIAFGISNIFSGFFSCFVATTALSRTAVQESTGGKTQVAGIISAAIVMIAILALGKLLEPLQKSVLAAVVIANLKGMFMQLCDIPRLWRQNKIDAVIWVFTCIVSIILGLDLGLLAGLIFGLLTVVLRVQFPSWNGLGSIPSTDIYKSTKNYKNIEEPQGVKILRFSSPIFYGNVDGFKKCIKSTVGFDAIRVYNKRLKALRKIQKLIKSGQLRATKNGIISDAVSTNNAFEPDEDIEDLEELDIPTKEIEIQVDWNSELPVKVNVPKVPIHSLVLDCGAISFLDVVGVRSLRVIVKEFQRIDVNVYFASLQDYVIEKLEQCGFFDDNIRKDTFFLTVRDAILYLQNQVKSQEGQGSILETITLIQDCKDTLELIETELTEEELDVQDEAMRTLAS
Description: Halide sensor YFP F46L/H148Q/I152L is quenched by halide ion like Iodide. When such YFP is expressed in a cell, it expresses in the cytoplasm.
To measure H723R-PDS activity, PANC-1 cells were stably transfected with halide sensors YFP-F46L/H148Q/I152L and H723R-PDS which has problems with membrane trafficking due to misfolding.
If the cell-treated drug is a corrector for H723R-PDS, H723R-PDS will translocate normally to the plasma membrane.
At this time, when treated with a high-concentration iodide solution outside the cell, iodide enters the cell due to the Cl−/I− exchange activity of pendrin, and the fluorescence of the halide sensor YFP decreases.
PANC-1 cells were cultured in Dulbecco's Modified Eagle's Medium with 10% fetal bovine serum, 2 mM glutamine, 100 units/ml penicillin and 100 µg/ml streptomycin. For high-throughput screening, PANC-1 cells were stably transfected with human H723R-pendrin and halide sensor YFP-F46L/H148Q/I152L.
PANC-1 cells expressing human H723R-pendrin and YFP-F46L/H148Q/I152L were plated in 96-well microplates at a density of 2×10^4 cells per well and grown for 20-24 hours at 37° C. (90% humidity 5% CO2). Then these cells were treated with 50 μl growth medium containing test compounds and incubated for 20-24 hours. For YFP quenching assay, each well of the 96-well plate was washed 2 times with 200 μl of PBS, and it was filled with 50 μl of HEPES-buffered solution (140 mM NaCl, 5 mM KCl, 1 mM MgCl2, 1 mM CaCl2, 10 mM D-glucose, 10 mM HEPES; pH 7.4 with NaOH). After 10 minutes of incubation at 37° C., the 96-well plate was moved on the FLUOstar Omega Microplate Reader (BMG Labtech, Ortenberg, Germany) for a fluorescence assay. Each well was assayed individually for H723R-pendrin mediated I^− influx by recording fluorescence (495±15 nm excitation, 520±20 nm emission) every 400 ms for 1 second (baseline). Then, 50 μL of NaI-substituted HEPES-buffered solution (NaI replacing NaCl) was added using a liquid injector at 1 second and YFP fluorescence was recorded every 400 ms for 10 seconds. The initial iodide influx rate was determined from the initial slope of fluorescence by nonlinear regression, after the infusion of iodide.
It is indicated as EC50 with the following key: A=EC50 less than 5 uM; B=EC50 greater than 5 uM, but less than 10 uM; C=EC50 greater than 10 uM.

[2] = molecular target: T2, H723R-hPDS (Homo sapiens, UniProt O43511, H723R); assay: Surface biotinylation assay; conditions: Panc1 hPDS-H723R cells, 24 h treatment
T2 construct: expressed in transfected cells; host or cells: Panc1 (Panc1^hPDS-H723R)
T2 sequence (O43511 1-780 H723R): T1 sequence (O43511 1-780 H723R)
Description: Surface biotinylation is a commonly used technique to specifically isolate plasma membrane proteins using a modified biotin in a form that is easy to bind with proteins. Sulfo-NHS-SS-biotin is a generally used reagent in surface biotinylation due to its impermeability and water solubility. In cool conditions, the extracellular domain of membrane proteins is covalently binding with the reactive biotin ester. These proteins are separated from the whole lysate via a biotin-streptavidin response. In this process, we can validate the increasing rate of the expression level of mutant pendrin in the plasma membrane.
Panc1^parental, Panc1^hPDS-WT and Panc1^hPDS-H723R cells were cultured in high glucose DMEM medium supplemented with 10% fetal bovine serum and 1% antibiotics. 24 hours after seeding in 6-well plates, cells were treated as indicated for 24 h. Cells were washed in PBS and incubated on ice with 0.3 mg/ml biotin in PBS. After 35 min, 1% BSA in PBS, D.W mixture (1:1) was added to cells, and cells were incubated for 10 min. Cells were washed and lysed in lysis buffer. The lysates were sonicated for 20 seconds, and not boiled. After centrifugated, the supernatants were collected and quantified via BCA analysis. The quantified supernatants were added to 10% avidin beads in PBS and incubated overnight at 4° C. After incubation, the below steps were repeated 4 times: i) centrifugation, ii) removing the supernatant, iii) washing with lysis buffer. After the last centrifugation and removing the supernatant, the sample buffer mixed with reducing buffer was added to biotin-avidin mixtures. The elution was accomplished in the 38° C. bioshaker for 40 min and the supernatant was collected. The supernatant was separated by SDS-PAGE and transferred to an Immobilon membrane. After incubation in 5% BSA solution to prevent nonspecific binding, the membrane was incubated with specific antibodies overnight. Then, the membrane was washed with TBST buffer and incubated with HRP-conjugated anti-rabbit or -mouse antibody for 1 hour. The ECL buffer and iBright were used for the visualization of protein bands. The respective protein band intensity was quantified by densitometric analysis using the NIH ImageJ program.
It is indicated as expression % with the following key: A=Expression % greater than 100%; B=Expression % greater than 50%, but less than 100%; C=Expression % less than 50%.

[3] = molecular target: T1, H723R-pendrin; assay: PTI assay (Cl−/HCO3− exchange activity); conditions: PANC-1 cells, BCECF pHi
Method: Measurements of intracellular pH (pHi) in PANC-1 cells were performed with the pH-sensitive fluorescent probe 2′,7′-bis-(2-carboxyethyl)-5-(and-6)-carboxyfluorescein (BCECF) according to previously reported protocols. Briefly, cells were incubated with 2 μM BCECF acetoxy-methylester for 5 min and then perfused with a HCO3^−-buffered solution [containing 120 mM NaCl, 5 mM KCl, 1 mM MgCl2, 1 mM CaCl2, 10 mM d-glucose, 5 mM Hepes, and 25 mM NaHCO3 (pH 7.4)].
BCECF fluorescence was recorded at excitation wavelengths of 490 and 440 nm at a resolution of 2/s on a recording setup. The Cl^−/HCO3^− exchange activities were estimated from the initial rate of pHi increase as a result of Cl^− removal from the HCO3^−-containing buffer (25 mM HCO3^− with 5% CO2).
The pHi calibration was performed with standard pH solutions containing 150 mM KCl and 5 μM nigericin. The intrinsic buffer capacity (βi) was calculated by measuring ΔpHi in response to 5 to 40 mM NH4Cl pulses in Na^+-free solutions. Because the βi values were not substantially affected by transfection with the plasmids encoding for WT-pendrin or H723R-pendrin, the Cl^−/HCO3^− exchange activities were expressed as ΔpH unit/min without compensating for the buffer capacity.
It is indicated as exchange % with the following key: A=Exchange % greater than 50%; B=Exchange % less than 50%.

Row | EC50 [1] [µM] | Surface expression % of H723R-hPDS relative to WT-hPDS (Glycosylated form pendrin) ([2]; 3 uM) | Surface expression % of H723R-hPDS relative to WT-hPDS (Glycosylated form pendrin) ([2]; 10 uM) | Cl−/HCO3− exchange, % of WT-hPDS ([3]; 3 uM) | Cl−/HCO3− exchange, % of WT-hPDS ([3]; 10 uM) | Compound
1 | < 5 | – | – | A (A=Exchange % greater than 50%) | A (A=Exchange % greater than 50%) | COc1cc(-c2cncc(C3=C(N)N(CC4CCCC4)CC3=O)n2)ccc1O [Compound 73]
2 | < 5 | – | – | B (B=Exchange % less than 50%) | A (A=Exchange % greater than 50%) | NC1=C(c2cncc(-c3ccc(O)c(O)c3)n2)C(=O)CN1CC1CCC1 [Compound 69]
3 | > 10 | – | – | – | – | COc1ccc(-c2cncc(C3=C(N)N(CCC(F)(F)F)CC3=O)c2)cc1OC [Compound 88]
4 | > 10 | – | – | – | – | COc1ccc(-c2ccnc(C3=C(N)N(CC4CCCC4)CC3=O)n2)cc1OC [Compound 56]
5 | 5 to 10 | – | – | – | – | COc1ccc(-c2cccc(C3=C(N)N(CC4CCOC4)CC3=O)n2)cc1OC (centres unmarked) [Compound 87]
6 | > 10 | – | – | – | – | NC1=C(c2nccc(-c3ccc(O)c(O)c3)n2)C(=O)CN1CC1CCNC1 (centres unmarked) [Compound 83]

The next lines start with the compound.

Row | Compound | EC50 [1] [µM] | Surface expression % of H723R-hPDS relative to WT-hPDS (Glycosylated form pendrin) ([2]; 3 uM) | Surface expression % of H723R-hPDS relative to WT-hPDS (Glycosylated form pendrin) ([2]; 10 uM) | Cl−/HCO3− exchange, % of WT-hPDS ([3]; 3 uM) | Cl−/HCO3− exchange, % of WT-hPDS ([3]; 10 uM)
7 | COc1ccc(-c2cncc(C3=C(N)N(CC(C)C)CC3=O)n2)cc1OC [Compound 8] | < 5 | B (B=Expression % greater than 50%, but less than 100%) | A (A=Expression % greater than 100%) | – | –
8 | NC1=C(c2cncc(-c3ccc(O)c(O)c3)n2)C(=O)CN1C1CCC(F)(F)C1 (centres unmarked) [Compound 62] | < 5 | B (B=Expression % greater than 50%, but less than 100%) | A (A=Expression % greater than 100%) | – | –
9 | NC1=C(c2cncc(-c3ccc(O)c(O)c3)n2)C(=O)CN1C1CCCC1 [Compound 33] | < 5 | A (A=Expression % greater than 100%) | A (A=Expression % greater than 100%) | – | –
10 | CC(C)CN1CC(=O)C(c2cncc(-c3ccc(O)c(O)c3)n2)=C1N [Compound 13] | < 5 | A (A=Expression % greater than 100%) | A (A=Expression % greater than 100%) | – | –
11 | NC1=C(c2cncc(-c3ccc(O)c(O)c3)n2)C(=O)CN1CC1CCCCC1 [Compound 49] | < 5 | A (A=Expression % greater than 100%) | A (A=Expression % greater than 100%) | A (A=Exchange % greater than 50%) | A (A=Exchange % greater than 50%)
12 | NC1=C(c2cncc(-c3ccc(O)c(O)c3)n2)C(=O)CN1CCC1CCCC1 [Compound 46] | < 5 | B (B=Expression % greater than 50%, but less than 100%) | A (A=Expression % greater than 100%) | – | –
13 | NC1=C(c2cncc(-c3ccc(O)cc3O)n2)C(=O)CN1c1ccccc1Cl [Compound 30] | > 10 | – | – | – | –
14 | NC1=C(c2cncc(-c3ccc4c(c3)OCO4)n2)C(=O)CN1c1ccccc1Cl [Compound 10] | > 10 | – | – | – | –
15 | COc1cc(-c2cncc(C3=C(N)N(c4ccccc4Cl)CC3=O)n2)ccc1O [Compound 28] | < 5 | A (A=Expression % greater than 100%) | A (A=Expression % greater than 100%) | B (B=Exchange % less than 50%) | A (A=Exchange % greater than 50%)
16 | COc1cc2c(cc1OC)CN(c1cncc(C3=C(N)N(c4ccccc4Cl)CC3=O)n1)CC2 [Compound 16] | > 10 | – | – | – | –
17 | NC1=C(c2cncc(-c3cnc(O)c(O)c3)n2)C(=O)CN1c1ccccc1Cl [Compound 38] | > 10 | – | – | – | –
18 | COc1ccc(-c2cncc(C3=C(N)N(CC4CCNC4)CC3=O)c2)cc1OC (centres unmarked) [Compound 55] | > 10 | – | – | – | –
19 | COc1ccc(-c2cncc(C3=C(N)N(CC4CCCCC4)CC3=O)n2)cc1OC [Compound 48] | > 10 | – | – | – | –
20 | COc1ccc(-c2cncc(C3=C(N)N(CC4CCCC4)CC3=O)c2)cc1OC [Compound 50] | > 10 | – | – | – | –
21 | COc1ccc(-c2cccc(C3=C(N)N(c4ccccc4F)CC3=O)n2)cc1OC [Compound 3] | > 10 | – | – | – | –
22 | NC1=C(c2cncc(-c3ccc4nccnc4c3)n2)C(=O)CN1c1ccccc1Cl [Compound 12] | > 10 | – | – | – | –
